Assays:
weeds [1] = test: Post-emergence test, summary on weeds; format: in vivo; details: result in words
Method: (§1) Solvent: 5 parts by weight of acetone
(§2) Emulsifier: 1 part by weight of alkylaryl polyglycol ether
(§3) To produce a suitable preparation of active compound, 1 part by weight of active compound is mixed with the stated amount of solvent, the stated amount of emulsifier is added and the concentrate is diluted with water to the desired concentration.
(§4) Test plants having a height of 5-15 cm are sprayed with the preparation of active compound such that the particular amounts of active compound desired are applied per unit area. The concentration of the spray liquor is chosen so that the particular amounts of active compound desired are applied in 1000 l of water/ha.
(§5) After three weeks, the degree of damage to the plants is rated in % damage in comparison with the development of the untreated control.
(§6) 0%=no effect (like untreated control)

Amaranthus [2] = test: Post-emergence test/greenhouse; format: in vivo; details: 504 h, 1000 g of ai./ha, plants 5-15 cm sprayed, rated after three weeks vs untreated control, 0%=no effect, 100%=total destruction, read-out: degree of damage to the plants, Amaranthus
Method: as §1, §2, §3, §4, §5, §6

Xanthium = test: Post-emergence test/greenhouse; format: in vivo; details: 1000 g of ai./ha, plants 5-15 cm sprayed, rated after three weeks vs untreated control, 0%=no effect, 100%=total destruction
Method: as §1, §2, §3, §4, §5, §6

Setaria [3] = test: Post-emergence test/greenhouse; format: in vivo; details: 504 h, 1000 g of ai./ha, plants 5-15 cm sprayed, rated after three weeks vs untreated control, 0%=no effect, 100%=total destruction, read-out: degree of damage to the plants, Setaria
Method: as §1, §2, §3, §4, §5, §6

Sinapis [4] = test: Post-emergence test/greenhouse; format: in vivo; details: 504 h, 1000 g of ai./ha, plants 5-15 cm sprayed, rated after three weeks vs untreated control, 0%=no effect, 100%=total destruction, read-out: degree of damage to the plants, Sinapis
Method: as §1, §2, §3, §4, §5, §6

Abutilon = test: Post-emergence test/greenhouse; format: in vivo; details: 504 h, 1000 g of ai./ha, plants 5-15 cm sprayed, rated after three weeks vs untreated control, 0%=no effect, 100%=total destruction, read-out: degree of damage to the plants, Abutilon
Method: as §1, §2, §3, §4, §5, §6

Maize [5] = test: Post-emergence test/greenhouse; format: in vivo; details: Zea mays, 504 h, 1000 g of ai./ha, plants 5-15 cm sprayed, rated after three weeks vs untreated control, 0%=no effect, 100%=total destruction, read-out: degree of damage to the plants, Maize
Method: as §1, §2, §3, §4, §5, §6

Amaranthus [6] = test: Pre-emergence test/greenhouse; format: in vivo; details: 1000 g of ai./ha, rated after three weeks vs untreated control, 0%=no effect, 100%=total destruction
Method: (§7) Pre-emergence Test Solvent: 5 parts by weight of acetone Emulsifier: 1 part by weight of alkylaryl polyglycol ether To produce a suitable preparation of active compound, 1 part by weight of active compound is mixed with the stated amount of solvent, the stated amount of emulsifier is added and the concentrate is diluted with water to the desired concentration. Seeds of the test plants are sown in normal soil. After about 24 hours, the soil is sprayed with the preparation of active compound such that the particular amounts of active compound desired are applied per unit area. The concentration of the spray liquor is chosen so that the particular amounts of active compound desired are applied in 1000 l of water/ha. After three weeks, the degree of damage to the plants is rated in % damage in comparison with the development of the untreated control. The figures denote: 0%=no effect (like untreated control) 100%=total destruction

Maize [7] = test: Pre-emergence test/greenhouse; format: in vivo; details: for degree of damage to the plants, Maize: pre-emergence, 1000 g of ai./ha, rated after three weeks vs untreated control, 0%=no effect, 100%=total destruction; for tolerance by crop plants, such as, for example, maize: pre-emergence test, result in words
Method: as §7

Setaria [8] = test: Pre-emergence test/greenhouse; format: in vivo; details: 1000 g of ai./ha, rated after three weeks vs untreated control, 0%=no effect, 100%=total destruction
Method: as §7

Sinapis [9] = test: Pre-emergence test/greenhouse; format: in vivo; details: 1000 g of ai./ha, rated after three weeks vs untreated control, 0%=no effect, 100%=total destruction
Method: as §7

Galium = test: Pre-emergence test/greenhouse; format: in vivo; details: 1000 g of ai./ha, rated after three weeks vs untreated control, 0%=no effect, 100%=total destruction
Method: as §7

weeds [10] = test: Pre-emergence test, summary on weeds; format: in vivo; details: result in words
Method: as §7

CC(Cl)c1nc(N)nc(NC(C)c2cccs2)n1 (stereo not shown) [Example 6]
melting point: 125 °C
action against weeds (weeds [1]): strong action

CCC(Nc1nc(N)nc(C(Cl)Cl)n1)c1cccs1 (stereo not shown) [Example 13]
action against weeds (weeds [1]): strong action

CCC(Nc1nc(NC(C)=O)nc(C(C)(Cl)Cl)n1)c1cccs1 (stereo not shown) [drawing 238]
pest or weed control at 1000 g/ha (Amaranthus [2]): 100%
degree of damage to the plants, Xanthium (Xanthium): 100%
pest or weed control at 1000 g/ha (Setaria [3]): 100%
pest or weed control at 1000 g/ha (Sinapis [4]): 100%

CC(Nc1nc(N)nc(C(Cl)Cl)n1)c1cccs1 (stereo not shown) [drawing 234]
pest or weed control at 1000 g/ha (Abutilon): 100%
pest or weed control at 1000 g/ha (Amaranthus [2]): 100%
pest or weed control at 1000 g/ha (Setaria [3]): 90%
pest or weed control at 1000 g/ha (Sinapis [4]): 100%

CCc1nc(NC(C)=O)nc(NC(CC)c2cccs2)n1 (stereo not shown) [Example 18]
action against weeds (weeds [1]): strong action

CCc1nc(NC(C)=O)nc(NC(C)c2cccs2)n1 (stereo not shown) [Example 2, 2-acetylamino-4-ethyl-6-(1-thien-2-yl-ethyl-amino)-1,3,5-triazine]
melting point: 153 °C
action against weeds (weeds [1]): strong action

CCC(Nc1nc(NC(C)=O)nc(C(Cl)Cl)n1)c1cccs1 (stereo not shown) [Example 20]
melting point: 131 °C
action against weeds (weeds [1]): strong action

CCC(Nc1nc(N)nc(C(C)Cl)n1)c1cccs1 (stereo not shown) [Example 14]
action against weeds (weeds [1]): strong action

CCc1nc(N)nc(NC(C)c2cccs2)n1 (stereo not shown) [drawing 225]
pest or weed control at 1000 g/ha (Abutilon): 100%
pest or weed control at 1000 g/ha (Amaranthus [2]): 100%
plant injury at 1000 g/ha (Maize [5]): 30%
pest or weed control at 1000 g/ha (Sinapis [4]): 100%

CCC(Nc1nc(NC(C)=O)nc(C(C)F)n1)c1cccs1 (stereo not shown) [drawing 224]
degree of damage to the plants, Amaranthus (Amaranthus [6]): 95%
degree of damage to the plants, Maize (Maize [7]): 0%
degree of damage to the plants, Setaria (Setaria [8]): 100%
degree of damage to the plants, Sinapis (Sinapis [9]): 100%
degree of damage to the plants, Galium (Galium): 100%

CCC(Nc1nc(NC(C)=O)nc(C(C)F)n1)c1cccs1 (stereo not shown) [drawing 235]
pest or weed control at 1000 g/ha (Abutilon): 100%
pest or weed control at 1000 g/ha (Amaranthus [2]): 100%
pest or weed control at 1000 g/ha (Setaria [3]): 100%
pest or weed control at 1000 g/ha (Sinapis [4]): 100%

CCC(Nc1nc(NC(C)=O)nc(C(C)(Cl)Cl)n1)c1cccs1 (stereo not shown) [Example 24]
melting point: 113 °C
action against weeds (weeds [1]): strong action

CCC(Nc1nc(NC(C)=O)nc(C(C)Cl)n1)c1cccs1 (stereo not shown) [drawing 233]
pest or weed control at 1000 g/ha (Abutilon): 100%
pest or weed control at 1000 g/ha (Amaranthus [2]): 100%
plant injury at 1000 g/ha (Maize [5]): 0%
pest or weed control at 1000 g/ha (Setaria [3]): 100%
pest or weed control at 1000 g/ha (Sinapis [4]): 100%

CCC(Nc1nc(N)nc(C(Cl)Cl)n1)c1cccs1 (stereo not shown) [drawing 237]
pest or weed control at 1000 g/ha (Amaranthus [2]): 100%
plant injury at 1000 g/ha (Maize [5]): 10%
degree of damage to the plants, Xanthium (Xanthium): 80%
pest or weed control at 1000 g/ha (Setaria [3]): 100%
pest or weed control at 1000 g/ha (Sinapis [4]): 100%

CCc1nc(N)nc(NC(CC)c2cccs2)n1 (stereo not shown) [Example 11]
action against weeds (weeds [1]): strong action

CCC(Nc1nc(N)nc(C(C)F)n1)c1cccs1 (stereo not shown) [Example 15]
tolerance by crop plants, such as, for example, maize (Maize [7]): tolerated very well
action against weeds (weeds [10]): strong action
action against weeds (weeds [1]): strong action

CCc1nc(NC(C)=O)nc(NC(C)c2cccs2)n1 (stereo not shown) [drawing 226]
pest or weed control at 1000 g/ha (Abutilon): 100%
pest or weed control at 1000 g/ha (Amaranthus [2]): 100%
plant injury at 1000 g/ha (Maize [5]): 0%
pest or weed control at 1000 g/ha (Setaria [3]): 90%
pest or weed control at 1000 g/ha (Sinapis [4]): 100%

CCC(Nc1nc(N)nc(C(C)Cl)n1)c1cccs1 (stereo not shown) [drawing 228]
pest or weed control at 1000 g/ha (Abutilon): 100%
pest or weed control at 1000 g/ha (Amaranthus [2]): 100%
plant injury at 1000 g/ha (Maize [5]): 30%
pest or weed control at 1000 g/ha (Setaria [3]): 100%
pest or weed control at 1000 g/ha (Sinapis [4]): 100%

CCC(Nc1nc(NC(C)=O)nc(C(C)Cl)n1)c1cccs1 (stereo not shown) [Example 21]
action against weeds (weeds [1]): strong action

CC(Nc1nc(N)nc(C(Cl)Cl)n1)c1cccs1 (stereo not shown) [Example 5]
melting point: 135 °C
action against weeds (weeds [1]): strong action

CCC(Nc1nc(N)nc(C(F)C(F)(F)F)n1)c1cccs1 (stereo not shown) [Example 16]
action against weeds (weeds [1]): strong action

CCc1nc(N)nc(NC(CC)c2cccs2)n1 (stereo not shown) [drawing 227]
pest or weed control at 1000 g/ha (Abutilon): 100%
pest or weed control at 1000 g/ha (Amaranthus [2]): 100%
plant injury at 1000 g/ha (Maize [5]): 30%
pest or weed control at 1000 g/ha (Setaria [3]): 100%
pest or weed control at 1000 g/ha (Sinapis [4]): 100%

CCC(Nc1nc(NC(C)=O)nc(C(Cl)Cl)n1)c1cccs1 (stereo not shown) [drawing 232]
pest or weed control at 1000 g/ha (Abutilon): 100%
pest or weed control at 1000 g/ha (Amaranthus [2]): 100%
plant injury at 1000 g/ha (Maize [5]): 0%
pest or weed control at 1000 g/ha (Setaria [3]): 100%
pest or weed control at 1000 g/ha (Sinapis [4]): 100%

CCC(Nc1nc(N)nc(C(C)F)n1)c1cccs1 (stereo not shown) [drawing 229]
pest or weed control at 1000 g/ha (Abutilon): 100%
pest or weed control at 1000 g/ha (Amaranthus [2]): 100%
plant injury at 1000 g/ha (Maize [5]): 0%
pest or weed control at 1000 g/ha (Setaria [3]): 100%
pest or weed control at 1000 g/ha (Sinapis [4]): 100%

CC(Cl)c1nc(N)nc(NC(C)c2cccs2)n1 (stereo not shown) [drawing 236]
pest or weed control at 1000 g/ha (Abutilon): 100%
pest or weed control at 1000 g/ha (Amaranthus [2]): 100%
plant injury at 1000 g/ha (Maize [5]): 0%
degree of damage to the plants, Xanthium (Xanthium): 100%

CCC(Nc1nc(N)nc(C(F)C(F)(F)F)n1)c1cccs1 (stereo not shown) [drawing 230]
pest or weed control at 1000 g/ha (Abutilon): 100%
pest or weed control at 1000 g/ha (Amaranthus [2]): 100%
plant injury at 1000 g/ha (Maize [5]): 10%
pest or weed control at 1000 g/ha (Setaria [3]): 100%
pest or weed control at 1000 g/ha (Sinapis [4]): 100%

CCc1nc(NC(C)=O)nc(NC(CC)c2cccs2)n1 (stereo not shown) [drawing 231]
pest or weed control at 1000 g/ha (Abutilon): 100%
pest or weed control at 1000 g/ha (Amaranthus [2]): 100%
plant injury at 1000 g/ha (Maize [5]): 20%
pest or weed control at 1000 g/ha (Setaria [3]): 100%
pest or weed control at 1000 g/ha (Sinapis [4]): 100%

CCC(Nc1nc(NC(C)=O)nc(C(C)F)n1)c1cccs1 (stereo not shown) [Example 22]
tolerance by crop plants, such as, for example, maize (Maize [7]): tolerated very well
action against weeds (weeds [10]): strong action
action against weeds (weeds [1]): strong action

CCC(Nc1nc(N)nc(C(C)F)n1)c1cccs1 (stereo not shown) [drawing 223]
degree of damage to the plants, Amaranthus (Amaranthus [6]): 100%
degree of damage to the plants, Maize (Maize [7]): 0%
degree of damage to the plants, Setaria (Setaria [8]): 90%
degree of damage to the plants, Galium (Galium): 100%

CCc1nc(N)nc(NC(C)c2cccs2)n1 (stereo not shown) [Example 1, 2-amino-4-ethyl-6-(1-thien-2-yl-ethylamino)-1,3,5-triazine]
action against weeds (weeds [1]): strong action

Source: US6348435B1, “Substituted 2,4-diamino-1,3,5-triazine and their use as herbicides” (Bayer Aktiengesellschaft, priority 1997, dated 2002)
